Laboratory results from patent US6835371B1 (priority 1997, dated 2004).
Where “and” joins values, the source holds several entries; their conditions need not be identical. Equal entries are not always repeated. Where two headings read alike, the source gives them in different places.

Tests used:
[1] = target: T1, human norepinephrine transporter (hNET) (Homo sapiens, UniProt P23975); test: biochemical; assay type: binding
[2] = target: T2, human dopamine transporter (hDAT) (Homo sapiens, UniProt Q01959); test: biochemical; assay type: binding
T2 sequence (Q01959 whole entry): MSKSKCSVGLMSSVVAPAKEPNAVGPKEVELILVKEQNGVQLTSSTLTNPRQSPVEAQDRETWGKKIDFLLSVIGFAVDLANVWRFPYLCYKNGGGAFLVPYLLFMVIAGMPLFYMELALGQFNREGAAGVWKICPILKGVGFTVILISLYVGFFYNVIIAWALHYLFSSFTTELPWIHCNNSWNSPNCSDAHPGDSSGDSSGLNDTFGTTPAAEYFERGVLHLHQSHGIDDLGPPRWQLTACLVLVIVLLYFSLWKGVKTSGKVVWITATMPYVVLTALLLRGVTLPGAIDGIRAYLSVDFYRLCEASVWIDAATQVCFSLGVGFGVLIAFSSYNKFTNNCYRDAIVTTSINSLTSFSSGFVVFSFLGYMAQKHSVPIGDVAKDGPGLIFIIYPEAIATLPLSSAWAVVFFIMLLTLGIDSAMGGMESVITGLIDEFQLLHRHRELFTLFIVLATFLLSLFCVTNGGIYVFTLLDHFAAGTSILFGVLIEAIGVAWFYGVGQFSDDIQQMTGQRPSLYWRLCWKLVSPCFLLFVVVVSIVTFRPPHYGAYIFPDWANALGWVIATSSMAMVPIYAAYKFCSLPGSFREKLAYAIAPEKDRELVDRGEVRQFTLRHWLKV

[3] = target: T2, human dopamine transporter (hDAT); test: cell-based
[4] = target: T1, human norepinephrine transporter (hNET); test: cell-based
male Swiss-Webster mice [5] = test: animal or person; assay type: in vivo
male Swiss-Webster mice [6] = test: Cocaine interaction study (locomotor activity); assay type: in vivo; conditions: planned comparisons on log10 horizontal activity counts, 20 mg/kg cocaine IP
[7] = read-out: [125I]RTI-55 binding Ki, NET
[8] = read-out: [125I]RTI-55 binding Ki, DAT
[9] = read-out: [3H]Dopamine Uptake IC50
[10] = HEK-hNET cells, read-out: [125I]RTI-55 binding Ki, NET
[11] = HEK-hNET cells, read-out: [3H]NE Uptake IC50
[12] = Table 2, read-out: Reuptake [3H]NE (Ki ± SD)

T1 sequence (P23975 whole entry): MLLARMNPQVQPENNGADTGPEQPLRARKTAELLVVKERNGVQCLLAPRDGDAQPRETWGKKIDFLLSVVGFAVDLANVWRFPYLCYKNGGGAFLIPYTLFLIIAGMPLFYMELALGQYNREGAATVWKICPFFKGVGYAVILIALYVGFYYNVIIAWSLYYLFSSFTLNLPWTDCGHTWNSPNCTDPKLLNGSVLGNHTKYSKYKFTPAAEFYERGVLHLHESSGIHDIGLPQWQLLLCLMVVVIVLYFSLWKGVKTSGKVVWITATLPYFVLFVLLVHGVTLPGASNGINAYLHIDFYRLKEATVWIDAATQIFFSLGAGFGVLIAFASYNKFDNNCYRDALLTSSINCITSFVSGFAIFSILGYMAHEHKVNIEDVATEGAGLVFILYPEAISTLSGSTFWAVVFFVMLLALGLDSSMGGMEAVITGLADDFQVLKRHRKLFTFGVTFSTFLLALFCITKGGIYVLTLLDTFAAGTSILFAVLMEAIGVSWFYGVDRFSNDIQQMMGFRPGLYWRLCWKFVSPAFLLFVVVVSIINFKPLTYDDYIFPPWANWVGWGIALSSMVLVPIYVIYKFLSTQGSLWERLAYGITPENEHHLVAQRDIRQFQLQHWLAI

Row | SMILES | Ki [1, 7] | Binding discrimination ratio NET/DAT [2] | Binding discrimination ratio SERT/DAT [2] | Hill coefficient [2] | Ki [2, 8] | Discrimination ratio uptake/binding (DA) [3] | IC50 [3, 9] | Hill coefficient [1] | Ki ([2]; [125I]RTI-55 binding Ki, DAT) | Discrimination Ratio DAT Binding/Reuptake [3] | IC50 ([4]; read-out: [3H]NE Uptake IC50) | also measured
1 | O=C1CN(CCCCOC(c2ccc(F)cc2)c2ccc(F)cc2)CCN1 [Compound 31524] | > 10 µM | >2.4 | 0.4 | −064 ± 0.03 | 4.1 µM | 0.6 | 2290 nM |  |  |  |  | Ki ([3]; read-out: Reuptake [3H]DA (Ki ± SD)): 2290 ± 200 nM; Ki ([4]; read-out: Reuptake [3H]NE (Ki ± SD)): > 10000 nM
2 | CC(=O)C1(c2ccccc2)CCN(CCCCOC(c2ccc(F)cc2)c2ccc(F)cc2)CC1 [Compound 31525] |  | 5.3 | 5.8 | −0.61 ± 0.01 |  | 47.5 |  | −0.71 ± 0.06 | 0.0217 µM |  |  | Ki [1, 10]: 0.114 µM; IC50 ([3]; HEK-hDAT cells, read-out: [3H]Dopamine Uptake IC50): 1030 nM; Ki ([3]; Table 2, read-out: Reuptake [3H]DA (Ki ± SD)): 1030 ± 330 nM; IC50 [4, 11]: 2550 nM; Ki [4, 12]: 2550 ± 950 nM
3 | Fc1ccc(C(OCCCCN2CCN(c3ccc(F)cc3)CC2)c2ccc(F)cc2)cc1 [Compound 31527] |  | 7.8 | 1.3 | −0.84 ± 0.05 |  | 23.0 |  | −0.72 ± 0.05 | 0.0265 µM | 23.0 |  | Ki ([1]; [125I]RTI-55 binding Ki, NET): 0.207 µM; IC50 [3]: 610 nM; Ki [3]: 610 ± 150 nM; Ki [4]: 225 ± 28 nM; IC50 ([4]; [3H]NE Uptake IC50): 225 ± 28 nM
4 | OC1(c2ccccc2)CCN(CCCCOC(c2ccc(F)cc2)c2ccc(F)cc2)CC1 [Compound 31531] |  | 8.4 | 2.8 | −0.63 ± 0.06 |  | 15.0 |  | −0.73 ± 0.03 | 0.0064 µM |  |  | Ki ([1]; [125I]RTI-55 binding Ki, NET): 0.054 µM; IC50 [3]: 96 nM; Ki [3]: 96 ± 11 nM; IC50 [4, 11]: 179 nM; Ki [4, 12]: 179 ± 47 nM
5 | Fc1ccc(C(OCCCCN2CCNC(c3ccccc3)C2)c2ccc(F)cc2)cc1 (stereo not shown) [Compound 31533] |  | 49.9 | 19.6 |  |  | 144.4 |  |  |  |  |  | Ki [3]: 550 ± 140 nM; Ki [4]: 290 ± 130 nM; ED50 (male Swiss-Webster mice [5]; Mus musculus, ip, read-out: ED50 (dose producing ½ maximal stimulant activity)): 1.52 mg/kg; Maximal effect/cocaine maximal effect ratio (ME/CME) (male Swiss-Webster mice [5]; mouse, in vivo): 0.30; Maximum effect, horizontal activity (male Swiss-Webster mice [5]; mouse, in vivo): 1648.6 counts/10 min; Dose at estimated maximum effect (male Swiss-Webster mice [5]; mouse, in vivo, ip): 10.26 mg/kg; Doses with significant differences against the cocaine group (p<0.05) (male Swiss-Webster mice [6]): 30 mg/kg
6 | OC1(c2ccc(Cl)cc2)CCN(CCCCOC(c2ccc(F)cc2)c2ccc(F)cc2)CC1 [Compound 31625] |  | 51.7 | 2380 | −0.74 ± 0.25 |  |  |  | −0.99 ± 0.22 | 0.0042 µM | 95.2 |  | Ki [1, 10]: 0.217 µM; IC50 ([3]; HEK-hDAT cells, text of Examples 20 and 24, read-out: [3H]Dopamine Uptake IC50): 400 nM; IC50 [4, 11]: 800 nM
7 | Fc1ccc(C(OCCCCN2CCN(c3ccccc3Cl)CC2)c2ccc(F)cc2)cc1 [Compound 31626] | 0.54 µM | 8.1 | 1.3 | −1.11 ± 0.08 | 0.067 µM |  | 328 nM | −1.39 ± 0.23 |  | 4.9 | 290 nM and 299 nM | 
8 | O=C1c2ccccc2C(=O)N1CCCCN1CCC(O)(c2ccc(Br)cc2)CC1 [Compound 31627] |  | 1 | >0.2 |  |  |  | >10000 nM |  |  |  | >10000 nM | Ki ([1]; HEK-hNET cells, bound given in μM, read-out: [125I]RTI-55 binding Ki, NET): > 10 µM; Ki ([2]; HEK-hDAT cells, bound given in μM, read-out: [125I]RTI-55 binding Ki, DAT): > 10 µM
9 | NC(=O)C1CCCN(CCCCOC(c2ccc(F)cc2)c2ccc(F)cc2)C1 (stereo not shown) [Compound 31628] | 0.578 µM | 6.1 | 1.4 | −1.02 ± 0.16 | 0.094 µM |  | 56 nM | −1.48 ± 0.70 |  | 0.6 | 158 nM | 
10 | OC1CCN(CCCCOC(c2ccc(F)cc2)c2ccc(F)cc2)CC1 [Compound 31648] | 0.61 µM | 5.4 | 3.7 | −0.69 ± 0.07 | 0.124 ± 0.027 µM |  | 101 nM | −0.75 ± 0.06 |  | 0.9 | 143 nM | 
11 | O=c1[nH]c2ccccc2n1C1CCN(CCCCOC(c2ccc(F)cc2)c2ccc(F)cc2)CC1 [Compound 31649] | 0.0222 µM | 16.8 | 2.9 | −0.63 ± 0.23 | 0.00132 µM |  | 426 nM | −0.47 ± 0.03 |  | 323 | 132 nM | 
12 | OC1CCCN(CCCCOC(c2ccc(F)cc2)c2ccc(F)cc2)C1 (stereo not shown) [Compound 31650] | 0.611 µM | 6.7 | 4.8 | −0.82 ± 0.15 | 0.091 µM |  | 114 nM | −0.66 ± 0.05 |  | 1.3 | 310 nM | 
13 | Fc1ccc(C(OCCCCN2CCN(c3cccc(Cl)c3)CC2)c2ccc(F)cc2)cc1 [Compound 31651] | 0.3 ± 0.07 µM | 1.7 | 0.8 |  | 0.175 ± 0.071 µM |  | 1670 ± 440 nM |  |  | 9.5 | 189 ± 89 nM | 
14 | Fc1ccc(C(OCCCCN2CCN(c3ccc(Cl)cc3)CC2)c2ccc(F)cc2)cc1 [Compound 31652] |  | 7.6 | 0.7 | −1.08 ± 0.18 |  |  |  | −0.80 ± 0.08 | 0.05 µM | 23.4 | 390 nM | Ki ([1]; [125I]RTI-55 binding Ki, NET): 0.38 µM and 3.8 µM; IC50 [3]: 1170 nM; IC50 ([4]; [3H]NE Uptake IC50): 390 nM
15 | Fc1ccc(C(OCCCCN2CCN(c3ccccc3)CC2)c2ccc(F)cc2)cc1 [Compound 31653] |  | 3.3 | 0.8 | −1.14 ± 0.10 |  |  |  | −0.93 ± 0.17 | 0.0609 µM | 23.2 |  | Ki ([1]; [125I]RTI-55 binding Ki, NET): 0.203 µM; IC50 [3]: 1410 nM; IC50 ([4]; [3H]NE Uptake IC50): 56.3 nM
16 | COc1ccccc1N1CCN(CCCCOC(c2ccc(F)cc2)c2ccc(F)cc2)CC1 [Compound 31654] | 0.092 µM | 3.5 | 9.7 | −0.88 ± 0.09 | 0.0262 µM |  | 301 nM | −0.59 ± 0.02 |  | 11.5 | 176 nM | 
